The source of these data is PubChem BioAssay AID328 (DTP/NCI, 2004).

In this assay the test system is BDF1 mice, P388 leukemia ip, median survival T/C. Kind of assay: NCI In Vivo Anticancer Drug Screen. Data for tumor model P388 Leukemia (intraperitoneal) in B6D2F1 (BDF1) mice. The settings on record: endpoint: median survival time, higher = longer survival. The method in brief:
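Reported as T/C, where T is the survival measurement in dosed animals and C the same measurement in vehicle controls.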

[1] abbreviates: dose: 100.0 mg/kg/injection, schedule: Q04DX003 (ip), vehicle: saline sonified.
[2] abbreviates: dose: 200.0 mg/kg/injection, schedule: Q04DX003 (ip), vehicle: saline sonified.
The mark [3] stands for this setting: dose: 100.0 mg/kg/injection, schedule: Q01DX009 (ip), vehicle: Klucel (hydroxypropylcellulose) (HPC).
The mark [4] stands for this setting: dose: 100.0 mg/kg/injection, schedule: Q04DX003 (ip), vehicle: Klucel (hydroxypropylcellulose) (HPC).
The mark [5] stands for this setting: dose: 200.0 mg/kg/injection, schedule: Q01DX009 (ip), vehicle: Klucel (hydroxypropylcellulose) (HPC).
Setting [6] is: dose: 200.0 mg/kg/injection, schedule: Q04DX003 (ip), vehicle: Klucel (hydroxypropylcellulose) (HPC).
The mark [7] stands for this setting: dose: 400.0 mg/kg/injection, schedule: Q04DX003 (ip), vehicle: Klucel (hydroxypropylcellulose) (HPC).
Setting [8] is: dose: 50.0 mg/kg/injection, schedule: Q01DX009 (ip), vehicle: saline with Tween-80.
Where [9] appears, read: dose: 100.0 mg/kg/injection, schedule: Q01DX009 (ip), vehicle: saline with Tween-80.
Where [10] appears, read: dose: 200.0 mg/kg/injection, schedule: Q01DX009 (ip), vehicle: saline with Tween-80.
[11] abbreviates: dose: 400.0 mg/kg/injection, schedule: Q01DX009 (ip), vehicle: Klucel (hydroxypropylcellulose) (HPC).
The mark [12] stands for this setting: dose: 25.0 mg/kg/injection, schedule: Q01DX009 (ip), vehicle: saline.
[13] abbreviates: dose: 100.0 mg/kg/injection, schedule: Q04DX002 (ip), vehicle: saline with Tween-80.
The mark [14] stands for this setting: dose: 200.0 mg/kg/injection, schedule: Q04DX002 (ip), vehicle: saline with Tween-80.
Setting [15] is: dose: 100.0 mg/kg/injection, schedule: Q04DX003 (ip), vehicle: saline with Tween-80.
[16] abbreviates: dose: 200.0 mg/kg/injection, schedule: Q04DX003 (ip), vehicle: saline with Tween-80.
The mark [17] stands for this setting: dose: 400.0 mg/kg/injection, schedule: Q04DX003 (ip), vehicle: saline with Tween-80.

Where “and” joins values, the source holds several entries; their conditions need not be identical. Equal entries are not always repeated. Inconclusive results and toxic doses are left out.

As for `COc1ccc2c(c1C)CCC1(C(=O)O)CC(C)C(O)CC21` (centres undefined), the T/C reads like this: (dose: 50.0 mg/kg/injection, schedule: Q04DX003 (ip), vehicle: saline sonified) 95 % of control; under setting [1], 100 % of control; under setting [2], 100 % of control.
Turning to `O=C(O)/C=C/c1cc2c(cc1[N+](=O)[O-])OCO2`, the T/C under setting [3] was 88 % of control; the T/C under setting [4] was 91 % of control; the T/C under setting [5] was 96 % of control; the T/C under setting [6] was 95 % of control; the T/C under setting [7] was 87 % of control.
Turning to `CC=NC(C[S-])C(=O)O.CC=NC(C[S-])C(=O)O.[Fe+2]` (centres undefined), the T/C under setting [8] is 110 % of control; the T/C under setting [9] is 100 % of control and 105 % of control; the T/C under setting [10] is 100 % of control and 104 % of control.
Consider `O=[N+]([O-])c1cccc(N2CN(c3cccc([N+](=O)[O-])c3)CN(c3cccc([N+](=O)[O-])c3)C2)c1`, for which the T/C was 116 % of control under setting [8], 106 % of control under setting [9] and 100 % of control under setting [10].
As to `c1ccc(CC2(Cc3ccccc3)SCCS2)cc1`, the T/C under setting [3] is 105 % of control; the T/C under setting [4] was 95 % of control; the T/C under setting [5] is 105 % of control; the T/C under setting [6] was 104 % of control; the T/C under setting [11] was 115 % of control; the T/C under setting [7] was 104 % of control.
For the molecule `CC1CN1P(=O)(Oc1ccccc1)N1CC1C` (centres undefined), for the setting “dose: 65.0 mg/kg/injection, schedule: Q01DX009 (ip), vehicle: saline”, the T/C was 104 % of control.
Regarding `CCCCCCNc1c(F)c(C#N)c(F)c(F)c1C#N`, the T/C under setting [8] is 103 % of control, the T/C under setting [9] is 93 % of control and the T/C under setting [10] was 110 % of control.
As to `CC[C@H]1CN2CCc3cc(OC)c(OC)cc3[C@@H]2C[C@@H]1C[C@H]1NCCc2c1[nH]c1ccc(O)cc21`, the T/C was 186 % of control (dose: 2.0 mg/kg/injection, schedule: Q04DX003 (ip), vehicle: saline + alcohol) and 183 % of control (dose: 4.0 mg/kg/injection, schedule: Q04DX003 (ip), vehicle: saline + alcohol).
With `N#CC1=C(N)NC(=O)C(C(N)=O)C1c1ccccc1Cl` (centres undefined), the T/C is 89 % of control (dose: 50.0 mg/kg/injection, schedule: Q01DX005 (ip), vehicle: saline with Tween-80); 92 % of control (dose: 100.0 mg/kg/injection, schedule: Q01DX005 (ip), vehicle: saline with Tween-80); 92 % of control (dose: 200.0 mg/kg/injection, schedule: Q01DX005 (ip), vehicle: saline with Tween-80).
`Nc1c(SSc2ccc3ccccc3c2N)ccc2ccccc12`: the T/C reads like this: (dose: 6.25 mg/kg/injection, schedule: Q01DX001 (ip), vehicle: Klucel (hydroxypropylcellulose) (HPC)) 109 % of control; (dose: 12.5 mg/kg/injection, schedule: Q01DX001 (ip), vehicle: Klucel (hydroxypropylcellulose) (HPC)) 109 % of control; (dose: 25.0 mg/kg/injection, schedule: Q01DX001 (ip), vehicle: Klucel (hydroxypropylcellulose) (HPC)) 116 % of control.
For `c1nc(N2CC2)c2cnn(C3CCCCO3)c2n1` (centres undefined), the T/C (dose: 25.0 mg/kg/injection, schedule: Q04DX003 (ip), vehicle: saline) is 109 % of control; the T/C (dose: 50.0 mg/kg/injection, schedule: Q04DX003 (ip), vehicle: saline) is 100 % of control; the T/C under setting [3] is 95 % of control; the T/C (dose: 100.0 mg/kg/injection, schedule: Q04DX003 (ip), vehicle: saline) is 100 % of control; the T/C (dose: 150.0 mg/kg/injection, schedule: Q04DX003 (ip), vehicle: Klucel (hydroxypropylcellulose) (HPC)) was 120 % of control; the T/C under setting [5] was 116 % of control. The T/C (dose: 225.0 mg/kg/injection, schedule: Q04DX003 (ip), vehicle: Klucel (hydroxypropylcellulose) (HPC)) is 120 % of control.
Turning to `CC(=O)c1ccccc1I`, the T/C reads like this: under setting [3], 100 % of control; under setting [4], 104 % of control; under setting [5], 95 % of control; under setting [6], 100 % of control; under setting [11], 100 % of control; under setting [7], 95 % of control.
`Cc1c[se]c(=S)s1`: the T/C by setting is: (dose: 25.0 mg/kg/injection, schedule: Q01DX009 (ip), vehicle: saline with Tween-80) 101 % of control; under setting [8], 96 % of control; under setting [9], 98 % of control.
For the molecule `Cc1nccn1C[c-]1[c-][c-][c-][c-]1.[Fe].[c-]1[c-][c-][cH-][c-]1`, the T/C was 108 % of control (dose: 6.25 mg/kg/injection, schedule: Q01DX009 (ip), vehicle: saline); 99 % of control (dose: 12.5 mg/kg/injection, schedule: Q01DX009 (ip), vehicle: saline); 100 % of control under setting [12].
For the molecule `CC(C(=O)O)S(=O)(=O)c1ccccc1` (centres undefined), the T/C is 93 % of control under setting [13] and 102 % of control under setting [14].
As for `C#CCOC1CCCCO1` (centres undefined), the T/C runs as follows: under setting [12], 90 % of control; (dose: 50.0 mg/kg/injection, schedule: Q01DX009 (ip), vehicle: saline) 100 % of control; (dose: 100.0 mg/kg/injection, schedule: Q01DX009 (ip), vehicle: saline) 100 % of control.
Consider `C=C(C)c1cc2c(cc1O)OCC2C` (centres undefined), for which the T/C is, setting by setting: under setting [4], 92 % of control; (dose: 300.0 mg/kg/injection, schedule: Q01DX009 (ip), vehicle: Klucel (hydroxypropylcellulose) (HPC)) 90 % of control; under setting [7], 92 % of control.
Turning to `NC(C(=O)O)C(=O)c1ccccc1` (centres undefined), the T/C is, setting by setting: under setting [1], 100 % of control; under setting [2], 100 % of control; (dose: 400.0 mg/kg/injection, schedule: Q04DX003 (ip), vehicle: saline sonified) 100 % of control.
As to `O=S(=O)(O)C1CCCCC1O` (centres undefined), the T/C runs as follows: under setting [13], 98 % of control; under setting [14], 101 % of control.
Regarding `CC(=O)C1COC(O)C1C` (centres undefined), the T/C is 95 % of control (dose: 0.63 mg/kg/injection, schedule: Q01DX010 (ip), vehicle: saline); 115 % of control and 103 % of control (dose: 1.25 mg/kg/injection, schedule: Q01DX009 (ip), vehicle: saline); 100 % of control (dose: 1.25 mg/kg/injection, schedule: Q01DX010 (ip), vehicle: saline); 116 % of control (dose: 2.5 mg/kg/injection, schedule: Q01DX010 (ip), vehicle: saline).
`CC/C(=C(\CC)c1ccc(OC)cc1)c1ccc(O)cc1`: the T/C by setting is: (dose: 100.0 mg/kg/injection, schedule: Q01DX009 (ip), vehicle: saline sonified) 105 % of control; under setting [15], 109 % of control; (dose: 200.0 mg/kg/injection, schedule: Q01DX009 (ip), vehicle: saline sonified) 110 % of control; under setting [16], 104 % of control; (dose: 400.0 mg/kg/injection, schedule: Q01DX009 (ip), vehicle: saline sonified) 115 % of control; under setting [17], 95 % of control.
For `CN(N)c1ccccc1`, the T/C is, setting by setting: (dose: 6.25 mg/kg/injection, schedule: Q04DX003 (ip), vehicle: saline with Tween-80) 93 % of control; (dose: 12.5 mg/kg/injection, schedule: Q04DX003 (ip), vehicle: saline with Tween-80) 95 % of control; (dose: 25.0 mg/kg/injection, schedule: Q04DX003 (ip), vehicle: saline with Tween-80) 90 % of control; (dose: 50.0 mg/kg/injection, schedule: Q04DX003 (ip), vehicle: saline with Tween-80) 104 % of control and 105 % of control; under setting [15], 113 % of control; under setting [16], 123 % of control.
For the molecule `CC1=CCCC(C)C12CCC(C(C)(C)O)C2` (centres undefined), the T/C reads like this: under setting [9], 92 % of control; under setting [15], 100 % of control; under setting [10], 92 % of control; under setting [16], 113 % of control; under setting [17], 118 % of control.
On to `CS(=O)(=O)OCC(O)C(O)C(O)C(O)COS(C)(=O)=O` (centres undefined), for which the T/C (dose: 25.0 mg/kg/injection, schedule: Q01DX010 (ip), vehicle: saline) is 108 % of control and the T/C (dose: 50.0 mg/kg/injection, schedule: Q01DX010 (ip), vehicle: saline) was 116 % of control.
For the molecule `O=[N+]([O-])c1cc([N+](=O)[O-])c2ccccc2c1NS(=O)(=O)c1ccc(Cl)c(Cl)c1`, the T/C under setting [8] is 92 % of control and the T/C under setting [9] was 111 % of control.
